Results as given in patent US20100298141A1, “SUBSTITUTED PYRIDINE N-OXIDE HERBICIDES” (E. I. DU PONT DE NEMOURS AND COMPANY, priority 2007, published 2010).

Legend:
lambsquarters = assay: Test C pre-/postemergence test; assay type: in vivo, Chenopodium album
Description: (§1) Seeds of plant species selected from blackgrass (Alopecurus myosuroides), downy brome (Bromus tectorum), green foxtail (Setaria viridis), Italian ryegrass (Lolium multiflorum), wheat (Triticum aestivum), wild oat (Avena fatua), catchweed bedstraw (Galium aparine), Russian thistle (Salsola kali), […] (Cynodon dactylon), Surinam grass (Brachiaria decumbens), cocklebur (Xanthium strumarium), corn (Zea mays), crabgrass (Digitaria sanguinalis), woolly cupgrass (Eriochloa villosa), giant foxtail (Setaria faberii), Goosegrass (Eleusin indica), johnsongrass (Sorghum halepense), kochia (Kochia scoparia), lambsquarters (Chenopodium album), morningglory (Ipomoea coccinea), eastern black nightshade (Solanum ptycanthum), yellow nutsedge (Cyperus esculentus), pigweed (Amaranthus retroflexus), common ragweed (Ambrosia elation), soybean (Glycine max), common (oilseed) sunflower (Helianthus annuus), and velvetleaf (Abutilon theophrasti) were planted and treated preemergence with test chemicals formulated in a non-phytotoxic solvent mixture which included a surfactant. At the same time, plants selected from these crop and weed species and also winter barley (Hordeum vulgare), canarygrass (Phalaris minor), and chickweed (Stellaria media) were treated with postemergence applications of some of the test chemicals formulated in the same manner. Plants ranged in height from 2 to 18 cm (1- to 4-leaf stage) for postemergence treatments. […] At time of treatment, test pots were flooded to 3 cm above the soil surface, treated by application of test compounds directly to the paddy water, and then maintained at that water depth for the duration of the test. […] A dash (-) response means no test result.

morningglory = assay: Test A pre-/postemergence greenhouse test; assay type: in vivo, Ipomoea spp.; conditions: for Morningglory plant response rating: 0 to 100 scale; for Plant response rating, Morningglory: 0 to 100 scale where 0 is no effect and 100 is complete control
In short: (§2)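 Seeds sown in a loam soil–sand blend got a preemergence directed soil spray of compound in a non-phytotoxic solvent mixture containing surfactant. Postemergence sprays of the same formulation went at the same time onto plants 2–10 cm tall at the one- to two-leaf stage. Injury was scored visually against untreated controls after about ten days in the greenhouse.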

rice = assay: Test C flooded paddy test; assay type: in vivo, Oryza sativa; conditions: Flood
In short: (§3)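 Flooded 3 cm over soil; compound into paddy water; depth kept constant. Greenhouse 13–15 d.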

bermudagrass = assay: Test C pre-/postemergence test; assay type: in vivo, Cynodon dactylon
Description: as §1

kochia = assay: Test C pre-/postemergence test; assay type: in vivo, Kochia scoparia
Description: as §1

woolly cupgrass = assay: Test C pre-/postemergence test; assay type: in vivo, Eriochloa villosa
Description: as §1

cocklebur = assay: Test C pre-/postemergence test; assay type: in vivo, Xanthium strumarium
Description: as §1

yellow nutsedge = assay: Test C pre-/postemergence test; assay type: in vivo, Cyperus esculentus
Description: as §1

redroot pigweed = assay: Test A pre-/postemergence greenhouse test; assay type: in vivo, Amaranthus retroflexus; conditions: for Pigweed plant response rating: 0 to 100 scale; for Plant response rating, Pigweed: 0 to 100 scale where 0 is no effect and 100 is complete control
In short: as §2

soybean = assay: Test C pre-/postemergence test; assay type: in vivo, Glycine max
Description: as §1

duck salad = assay: Test C flooded paddy test; assay type: in vivo, Heteranthera limosa; conditions: Flood
In short: as §3

blackgrass = assay: Test C pre-/postemergence test; assay type: in vivo, Alopecurus myosuroides; conditions: Postemergence; for Plant response rating, Blackgrass: scale 0 to 100, 0 no effect, 100 complete control
Description: as §1

downy brome = assay: Test C pre-/postemergence test; assay type: in vivo, Bromus tectorum; conditions: Postemergence; for Plant response rating, Bromegrass, Downy: scale 0 to 100, 0 no effect, 100 complete control
Description: as §1

green foxtail = assay: Test C pre-/postemergence test; assay type: in vivo, Setaria viridis; conditions: Postemergence; for Plant response rating, Foxtail, Green: scale 0 to 100, 0 no effect, 100 complete control
Description: as §1

wild oat = assay: Test C pre-/postemergence test; assay type: in vivo, Avena fatua; conditions: Postemergence; for Plant response rating, Oat, Wild: scale 0 to 100, 0 no effect, 100 complete control
Description: as §1

[1] = 62 g ai/ha, Preemergence, scale 0 to 100
[2] = 125 g ai/ha, preemergence, scale 0 (no effect) to 100 (complete control)
[3] = Preemergence, 31 g ai/ha, scale 0 to 100 (0 no effect, 100 complete control)
[4] = preemergence, 250 g ai/ha, scale 0 (no effect) to 100 (complete control)
[5] = Postemergence, 125 g ai/ha, 0 is no effect, 100 is complete control
[6] = Postemergence, 500 g ai/ha, 0 is no effect, 100 is complete control
[7] = Preemergence, 125 g ai/ha, 0 no effect, 100 complete control
[8] = 31 g ai/ha, scale 0 to 100 (0 no effect, 100 complete control)
[9] = 62 g ai/ha, scale 0 to 100, 0 no effect, 100 complete control, 13 to 15 days
[10] = 125 g ai/ha, scale 0 to 100, 0 no effect, 100 complete control, 13 to 15 days
[11] = 250 g ai/ha, scale 0 to 100, 0 no effect, 100 complete control, 13 to 15 days
[12] = 62 g ai/ha, preemergence, scale 0 (no effect) to 100 (complete control)
[13] = Postemergence, 62 g ai/ha, scale 0 to 100, 0 no effect, 100 complete control
[14] = Postemergence, 125 g ai/ha, scale 0 to 100, 0 no effect, 100 complete control
[15] = Postemergence, 250 g ai/ha, scale 0 to 100, 0 no effect, 100 complete control
[16] = 31 g ai/ha, Preemergence, scale 0 to 100
[17] = preemergence, 125 g ai/ha, scale 0 (no effect) to 100 (complete control)

Cn1nc(C(F)(F)F)c(C[S+]([O-])c2cc(Cl)cc[n+]2[O-])c1Cl (racemic) [Compound 39]
80: Lambsquarters plant response rating (lambsquarters; [1]) | Morningglory plant response rating (morningglory; [7]) | Plant response rating, Ducksalad (duck salad; [9])
95: Plant response rating, Ducksalad (duck salad; [11])
10: Plant response rating, Rice (rice; [9]) | Soybean plant response rating (soybean; [2]) | Soybean plant response rating (soybean; [4])
0: Plant response rating, Rice (rice; [8]) | Kochia plant response rating (kochia; [1]) | Plant response rating, Kochia (kochia; [3]) | Cocklebur plant response rating (cocklebur; [1]) | Cocklebur plant response rating (cocklebur; [2]) | Plant response rating, Cocklebur (cocklebur; [3]) | Cocklebur plant response rating (cocklebur; [4]) | Soybean plant response rating (soybean; [1]) | Plant response rating, Soybean (soybean; [3])
75: Plant response rating, Lambsquarters (lambsquarters; [3])
40: Plant response rating, Rice (rice; [10]) | Plant response rating, Cupgrass, Woolly (woolly cupgrass; [3])
85: Plant response rating, Bermudagrass (bermudagrass; [3]) | Cupgrass, Woolly plant response rating (woolly cupgrass; [1]) | Cupgrass, Woolly plant response rating (woolly cupgrass; [2]) | Cupgrass, Woolly plant response rating (woolly cupgrass; [4]) | Nutsedge, Yellow plant response rating (yellow nutsedge; [2]) | Nutsedge, Yellow plant response rating (yellow nutsedge; [4])
50: Nutsedge, Yellow plant response rating (yellow nutsedge; [1]) | Plant response rating, Nutsedge, Yellow (yellow nutsedge; [3])
65: Plant response rating, Rice (rice; [11])
60: Morningglory plant response rating (morningglory; [5]) | Kochia plant response rating (kochia; [2]) | Pigweed plant response rating (redroot pigweed; [5])
90: Plant response rating, Ducksalad (duck salad; [10])
70: Plant response rating, Ducksalad (duck salad; [8])
100: Lambsquarters plant response rating (lambsquarters; [2]) | Lambsquarters plant response rating (lambsquarters; [4]) | Morningglory plant response rating (morningglory; [6]) | Plant response rating, Morningglory (morningglory; Preemergence, 500 g ai/ha) | Bermudagrass plant response rating (bermudagrass; 62 g ai/ha, Preemergence, scale 0 to 100 (0 no effect, 100 complete control)) | Bermudagrass plant response rating (bermudagrass; [2]) | Bermudagrass plant response rating (bermudagrass; [4]) | Kochia plant response rating (kochia; [4]) | Pigweed plant response rating (redroot pigweed; [6]) | Pigweed plant response rating (redroot pigweed; [7]) | Plant response rating, Pigweed (redroot pigweed; Preemergence, 500 g ai/ha)

Cn1nc(C(F)(F)F)c(C[S+]([O-])c2ccc(Cl)c[n+]2[O-])c1OC(F)F (centres unmarked) [Compound 6]
90: Morningglory plant response rating (morningglory; [6]) | Morningglory plant response rating (morningglory; [7]) | Cupgrass, Woolly plant response rating (woolly cupgrass; [16]) | Plant response rating, Soybean (soybean; [15])
70: Plant response rating, Foxtail, Green (green foxtail; 125 g ai/ha) | Plant response rating, Foxtail, Green (green foxtail; 250 g ai/ha) | Plant response rating, Soybean (soybean; [14])
0: Lambsquarters plant response rating (lambsquarters; [12]) | Plant response rating (0 to 100), Lambsquarters (lambsquarters; Postemergence, 31 g ai/ha) | Plant response rating (0 to 100), Blackgrass (blackgrass; 31 g ai/ha) | Plant response rating (0 to 100), Bromegrass, Downy (downy brome; 31 g ai/ha) | Plant response rating (0 to 100), Bermudagrass (bermudagrass; Postemergence, 31 g ai/ha) | Kochia plant response rating (kochia; [12]) | Plant response rating (0 to 100), Kochia (kochia; Postemergence, 31 g ai/ha) | Plant response rating, Kochia (kochia; [13]) | Plant response rating, Kochia (kochia; [14]) | Plant response rating, Kochia (kochia; [15]) | Plant response rating (0 to 100), Kochia (kochia; Preemergence, 250 g ai/ha) | Plant response rating (0 to 100), Cupgrass, Woolly (woolly cupgrass; Postemergence, 31 g ai/ha) | Plant response rating, Cupgrass, Woolly (woolly cupgrass; [13]) | Cocklebur plant response rating (cocklebur; [16]) | Cocklebur plant response rating (cocklebur; [12]) | Plant response rating (0 to 100), Cocklebur (cocklebur; Postemergence, 31 g ai/ha) | Plant response rating, Cocklebur (cocklebur; [13]) | Plant response rating, Cocklebur (cocklebur; [14]) | Plant response rating, Cocklebur (cocklebur; [15]) | Plant response rating (0 to 100), Cocklebur (cocklebur; Preemergence, 250 g ai/ha) | Cocklebur plant response rating (cocklebur; [17]) | Nutsedge, Yellow plant response rating (yellow nutsedge; [16]) | Plant response rating (0 to 100), Nutsedge, Yellow (yellow nutsedge; Postemergence, 31 g ai/ha) | Plant response rating, Nutsedge, Yellow (yellow nutsedge; [13]) | Plant response rating, Nutsedge, Yellow (yellow nutsedge; [14]) | Soybean plant response rating (soybean; [16]) | Soybean plant response rating (soybean; [12]) | Soybean plant response rating (soybean; [17])
5: Plant response rating (0 to 100), Soybean (soybean; Postemergence, 31 g ai/ha)
98: Bermudagrass plant response rating (bermudagrass; [16]) | Bermudagrass plant response rating (bermudagrass; [12]) | Plant response rating (0 to 100), Nutsedge, Yellow (yellow nutsedge; Preemergence, 250 g ai/ha)
20: Nutsedge, Yellow plant response rating (yellow nutsedge; [12]) | Plant response rating, Nutsedge, Yellow (yellow nutsedge; [15]) | Plant response rating (0 to 100), Oat, Wild (wild oat; 31 g ai/ha)
55: Plant response rating, Cupgrass, Woolly (woolly cupgrass; [15]) | Plant response rating, Foxtail, Green (green foxtail; 62 g ai/ha)
60: Plant response rating (0 to 100), Soybean (soybean; Postemergence, 62 g ai/ha) | Plant response rating, Oat, Wild (wild oat; 250 g ai/ha)
10: Plant response rating, Lambsquarters (lambsquarters; [13]) | Plant response rating, Lambsquarters (lambsquarters; [14]) | Plant response rating, Lambsquarters (lambsquarters; [15]) | Plant response rating, Bermudagrass (bermudagrass; [13])
50: Plant response rating, Blackgrass (blackgrass; 62 g ai/ha) | Plant response rating, Blackgrass (blackgrass; 125 g ai/ha) | Plant response rating, Blackgrass (blackgrass; 250 g ai/ha) | Plant response rating, Bromegrass, Downy (downy brome; 125 g ai/ha) | Plant response rating, Bermudagrass (bermudagrass; [14]) | Plant response rating, Cupgrass, Woolly (woolly cupgrass; [14]) | Plant response rating (0 to 100), Soybean (soybean; Preemergence, 250 g ai/ha) | Plant response rating, Oat, Wild (wild oat; 62 g ai/ha)
30: Plant response rating, Bromegrass, Downy (downy brome; 62 g ai/ha) | Plant response rating (0 to 100), Foxtail, Green (green foxtail; 31 g ai/ha)
80: Morningglory plant response rating (morningglory; [5]) | Plant response rating, Bromegrass, Downy (downy brome; 250 g ai/ha) | Plant response rating, Bermudagrass (bermudagrass; [15]) | Nutsedge, Yellow plant response rating (yellow nutsedge; [17])
100: Plant response rating (0 to 100), Lambsquarters (lambsquarters; Preemergence, 250 g ai/ha) | Plant response rating, Morningglory (morningglory; Preemergence, 500 g ai/ha) | Plant response rating (0 to 100), Bermudagrass (bermudagrass; Preemergence, 250 g ai/ha) | Bermudagrass plant response rating (bermudagrass; [17]) | Cupgrass, Woolly plant response rating (woolly cupgrass; [12]) | Plant response rating (0 to 100), Cupgrass, Woolly (woolly cupgrass; Preemergence, 250 g ai/ha) | Cupgrass, Woolly plant response rating (woolly cupgrass; [17]) | Pigweed plant response rating (redroot pigweed; [5]) | Pigweed plant response rating (redroot pigweed; [6]) | Pigweed plant response rating (redroot pigweed; [7]) | Plant response rating, Pigweed (redroot pigweed; Preemergence, 500 g ai/ha)
